According to patent publication US20220265606A1, “ANTICANCER AGENTS” (The Texas A&M University System, priority 2019, published 2022):
Read-outs that look alike come from different tables or passages of the source.

Assays:
[1] = system: glioblastoma cells; experiment: Measurement of apoptosis (Annexin V staining); format: cell-based, human; conditions: 24 hr
Description: Measurement of Apoptosis (Annexin V Staining). Cancer cells were seeded at density of 1.5×10^5 per ml in 6 well plates and treated with either vehicle (DMSO) or compounds for 24 hr.
(§1) Glioblastoma cells were treated with different concentrations of 4-Cl (FIG. 6A), 3-CF3-4-Cl (FIG. 6B), and 2-OH-4-Br (FIG. 6C) and effects on induction of Annexin V were determined as outlined herein. Glioblastoma cells were treated with different concentrations of NR4A2 antagonists and whole cell lysates were analyzed for markers of apoptosis by western blots.

[2] = system: glioblastoma cells; experiment: Western blot of apoptosis markers in whole cell lysates; format: cell-based, human
Description: Western Blot Analysis. 17008, 15037, 14104s, 14015s, 15049, U87-MG, A172, T98G, and CCF-STTG1 cells were seeded at density of 1.5×10^5 per ml in 6 well plates and treated with various concentration of compounds and whole cell proteins were extracted using RIPA lysis buffer containing 10 mM Tris-HCl (pH 7.4), 150 mM NaCl, 1 mM ethylenediaminetetraacetic acid (EDTA), 1% Triton X-100 (w/v), 0.5% sodium deoxycholate and 0.1% sodium dodecylsulphate (SDS) with protease and phosphatase inhibitor cocktail. Protein concentrations were measured using Lowry's method and equal amounts of protein were separated in 10% and 15% SDS-PAGE and transferred to a Polyvinylidene difluoride (PVDF) membrane. PVDF membranes were incubated overnight at 4° C. with primary antibodies in 5% skimmed milk and incubated for 2-3 hr with secondary antibodies conjugated with horseradish peroxidase (HRP). Membranes were then exposed to HRP-substrate and immune reacted proteins were detected with chemiluminescence reagent.
as §1

[3] = system: NR4A2; conditions: Panc1 / pancreatic cancer cells
Description: (§2) Transactivation Assay. Cells (8×10^4) per well were plated on 12-well plates in DMEM/F-12 supplemented with 2.5% charcoal-stripped FBS and 0.22% sodium bicarbonate. After 24 h growth, various amounts of DNA [i.e., UASx5-Luc (400 ng), GAL4-Nurr1 (40 ng) and β-gal (40 ng)] were cotransfected into each well by Lipofectamine 2000 reagent (Invitrogen, Carlsbad, Calif.) according to the manufacturer's protocol. After 5-6 hr of transfection, cells were treated with plating media (as above) containing either solvent (DMSO) or the indicated concentration of compounds for 24 hr. Cells were then lysed using a freeze-thaw protocol and 30 μL of cell extract was used for luciferase and β-gal assays. LumiCount (Packard, Meriden, Conn.) was used to quantify luciferase and β-gal activities. Luciferase activity values were normalized against corresponding (3-gal activity values as well as protein concentrations determined by Lowry's Method.

[4] = system: vasoactive intestinal peptide (VIP) gene expression in Panc1 cells; experiment: VIP gene expression by quantitative PCR in Panc1 cells
Description: (§3) The effects of bis-indole and quinoline derivatives on activation of the NR4A2 regulated genes vasoactive intestinal peptide (VIP) was investigated. […] Relative expression levels of VIP were determined by quantitative PCR analysis. Results are expressed as means±SD for at least six separate determinations for each treatment.

[5] = biological target: NR4A2 ligand binding domain (LBD) (Homo sapiens, UniProt P43354); experiment: Ligand-induced quenching of NR4A2 LBD tryptophan fluorescence
Description: Quenching of NR4A1 Tryptophan Fluorescence by Direct Ligand Binding. Tryptophan fluorescence spectra were obtained as described herein. Briefly, histidine-tagged ligand binding domain (LBD) of NR4A1 at a final concentration of 0.5 μmol/L in 1.0 mL of phosphate-buffered saline (PBS, pH 7.4) was used for fluorescence measurements. The protein was incubated for 3 min at 25 °C in a temperature-controlled (Quantum Northwest TC125) fluorescence spectrophotometer (Varian Cary Eclipse). […] Ligand only fluorescence intensity at each ligand concentration was used to correct the NR4A1 tryptophan fluorescence intensity as described in the above references.
Accordingly, ligand binding assay for NR4A1 and NR4A2 which measures ligand-induced quenching of tryptophan fluorescence by the ligand were developed to further characterize activity with respect to NR4A1 and NR4A2. A tryptophane residue is located in the ligand binding domain (LBD) of both receptors and the LBD of the receptor is used in the binding assay.

[6] = system: vasoactive intestinal peptide (VIP) in pancreatic cancer cells; conditions: initial (background) work; cited from earlier work
[7] = system: U87-MG cells as xenografts; experiment: Xenograft study; format: in vivo, athymic nu/nu mice
Description: Xenograft Study. Female athymic nu/nu mice (4-6 weeks old) were purchased from Harlan Laboratories (Houston, TX). U87-MG cells (1×10^6) were harvested in 100 μl of DMEM and suspended in ice-cold Matrigel (1:1 ratio) and s.c. injected to either side of the flank area of the mice. After one week of tumor cell inoculation, mice were divided into two groups of 5 animals each. The first group received 100 μL of vehicle (corn oil), and second group of animals received an injection of 30 mg/kg/day of C-DIM 12 in 100 μl volume of corn oil by i.p. for three weeks. All mice were weighed once a week over the course of treatment to monitor changes in body weight. Tumor volumes could not be determined over the period of treatment because xenografted tumors were relatively deep. After three weeks of treatment, mice were sacrificed and tumor weights were determined.

[8] = system: dopaminergic neurons; conditions: in vivo, previous studies; cited from earlier work
[9] = system: 15037 cells; experiment: 3D tumor spheroid invasion assay; conditions: 10 μM, vs DMSO
Description: Three-Dimensional (3D) Tumor Spheroid Invasion Assay. The cells were suspended in the complete medium (2×10^4 cells/ml). […] The plate was transferred to the incubator for 1 hr and 100 μl of the complete media containing 3 times the desired final concentration of compounds was supplemented and then incubated for 3-5 days followed by fixation in 4% formaldehyde. Spheroid invasion was determined by measuring the cross-sectional areas of the spheroid center and the rim of invaded cells using ImageJ.

[10] = system: NR4A2
Description: as §2

[11] = previous studies, cited from earlier work
[12] = system: vasoactive intestinal peptide (VIP) gene expression in Panc28 cells; experiment: VIP gene expression by quantitative PCR in Panc28 cells
Description: as §3

[13] = biological target: T1, NR4A1 LBD (Homo sapiens, UniProt P22736); experiment: NR4A1/bisANS fluorescence binding
T1 construct: histidine tag
Description: The binding affinity (Kd) and binding stoichiometry (Bmax) of NR4A1/bisANS were determined essentially as described in FEBS Journal, 2014, 281, 2266-2283. For NR4A1/bisANS the binding affinity (Kd) was determined to be […] and the binding stoichiometry (Bmax) was determined to be 0.80 mol bisANS/mol NR4A1. The ability of ligand to displace bisANS was analyzed essentially as described in FEBS Journal, 2014, 281, 2266-2283. Briefly, histidine-tagged NR4A1 LBD (final concentration=0.05 μmon PBS, pH 7.4) was incubated at 25° C. for 3 min in the presence of 5.0 μmol bisANS/L. The bisANS fluorescence spectrum was obtained utilizing a Varian Cary Eclipse fluorescence spectrophotometer with an excitation wavelength of 365 nm (excitation slit width=5 nm) and an emission wavelength range of 400-600 nm (emission slit width=5 nm). Ligand titration was accomplished as described above for direct ligand binding using a stock ligand concentration of 10 mmol ligand/L ethanol. Addition of ethanol only had no effect on NR4A1/bisANS fluorescence (data not shown). […] Ligand/bisANS fluorescence intensity at each ligand concentration was used to correct the NR4A1/bisANS/ligand fluorescence intensity as described in the above reference.

NR4A2 ligand binding domain (LBD), sequence (P43354 360-595 limits assumed, species assumed): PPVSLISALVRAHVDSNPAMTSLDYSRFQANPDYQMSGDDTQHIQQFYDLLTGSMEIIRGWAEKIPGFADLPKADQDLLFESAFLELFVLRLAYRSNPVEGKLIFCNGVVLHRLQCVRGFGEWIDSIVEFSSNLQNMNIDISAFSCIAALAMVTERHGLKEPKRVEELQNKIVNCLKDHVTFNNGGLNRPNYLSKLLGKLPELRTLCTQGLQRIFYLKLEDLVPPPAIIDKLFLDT
T1 sequence (P22736 360-595 limits assumed, species assumed): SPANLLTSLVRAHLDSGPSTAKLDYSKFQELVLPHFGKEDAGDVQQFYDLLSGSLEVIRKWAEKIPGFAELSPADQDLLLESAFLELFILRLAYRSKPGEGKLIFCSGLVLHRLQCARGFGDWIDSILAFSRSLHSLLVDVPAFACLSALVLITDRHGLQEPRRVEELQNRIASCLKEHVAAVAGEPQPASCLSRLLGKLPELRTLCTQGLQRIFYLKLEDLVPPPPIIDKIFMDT

Row | Structure (SMILES) | Annexin V staining [1] | Cleavage of caspase 7, 8 and PARP [2] | NR4A2-dependent transactivation [3] | Binding to NR4A2 (quenching of LBD-Trp), in words [5] | also measured
1 | FC(F)(F)c1cc(C(c2c[nH]c3ccccc23)c2c[nH]c3ccccc23)ccc1Cl [Ligand 3-CF3-4-Cl] | induced Annexin V staining | cleaved caspase 7, 8 and PARP cleavage | induced NR4A2-dependent transactivation |  | 
2 | Oc1cc(Br)ccc1C(c1c[nH]c2ccccc12)c1c[nH]c2ccccc12 [Ligand 2-OH-4-Br] | induced Annexin V staining | cleaved caspase 7, 8 and PARP cleavage | induced NR4A2-dependent transactivation |  | Induction of VIP expression ([4]; bis-indole analogs 5, 10 and 15 μM, CQ 100, 150 and 200 μM, AQ 50, 75 and 100 μM): ≤ 330 fold
3 | Clc1ccccc1C(c1c[nH]c2ccccc12)c1c[nH]c2ccccc12 [CDIM-2-Cl] |  |  |  | gave similar results | 
4 | Clc1ccc(C(c2c[nH]c3ccccc23)c2c[nH]c3ccccc23)cc1 [CDIM-4-Cl] | induced Annexin V staining | cleaved caspase 7, 8 and PARP cleavage | activated NR4A2-dependent transactivation | do not quench the LBD-Trp | Induction of VIP in pancreatic cancer cells [6]: induced vasoactive intestinal peptide (VIP); Tumor weight ([7]; 30 mg/kg/day i.p. for three weeks, athymic nude mice bearing U87-MG xenograft): significantly decreased tumor weight; Cleaved caspase 8 in tumors ([7]; 30 mg/kg/day, western blot of tumor lysates vs vehicle controls): significant upregulation of cleaved caspase 8; MPTP-induced loss of dopaminergic neurons [8]: inhibited; Tumor spheroid invasion [9]: inhibited tumor spheroid invasion; NR4A2-dependent transactivation in GBM cells (FIGS. 4A-4C) [10]: inhibited NR4A2-dependent transactivation; Crossing of the blood-brain barrier [11]: cross the blood-brain barrier; Crossing of the blood-brain barrier ([11]; listed as DIM-C-pPhCl): crosses the blood-brain barrier and accumulates in the brain
5 | Clc1cccc(C(c2c[nH]c3ccccc23)c2c[nH]c3ccccc23)c1 [CDIM-3-Cl] |  |  |  | gave similar results | 
6 | Cn1cc(C(c2ccc(O)cc2)c2cn(C)c3ccccc23)c2ccccc21 [N—Me-4-OH] |  |  | induced NR4A2-dependent transactivation |  | Induction of VIP, in words [12]: more potent inducer of VIP in Panc1 and Panc28 cells than either CQ or AQ; Induction of VIP, in words [4]: more potent inducer of VIP in Panc1 and Panc28 cells than either CQ or AQ
7 | O=S(=O)(O)c1cccc2c(-c3ccc(Nc4ccccc4)c4c(S(=O)(=O)O)cccc34)ccc(Nc3ccccc3)c12 [bisANS] |  |  |  |  | NR4A1/bisANS binding stoichiometry (Bmax) [13]: 0.80 mol bisANS/mol NR4A1
8 | Brc1ccc(C(c2c[nH]c3ccccc23)c2c[nH]c3ccccc23)cc1 [CDIM-4-Br, 1-bis(3′indolyl)-1-(p-bromophenyl)methane] |  |  |  |  | Induction of VIP in pancreatic cancer cells [6]: induced vasoactive intestinal peptide (VIP)
